From PubChem BioAssay (NCI) come the findings set out here.

The structures appear in SMILES notation. Where “and” joins values, the source holds several entries; their conditions need not be identical. Equal entries are not always repeated.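 Following 48 hours of exposure in 96-well plates, responses at five concentrations were used to interpolate endpoints linearly. GI50 = concentration required for 50% inhibition of growth. TGI: concentration producing complete growth inhibition.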

Among the test systems are UO-31 renal; HCT-116 colon; HL-60(TB) leukemia; SK-OV-3 ovarian; SF-268 CNS; PC-3 prostate; SK-MEL-5 melanoma; NCI/ADR-RES ovarian; SF-295 CNS; SK-MEL-2 melanoma.
Holding throughout (test): inhibition of tumour cell growth, NCI panel, 48 h

Turning to `COc1cc(-c2oc3c(OC)cc(OC)c(O)c3c(=O)c2OC)cc(OC)c1OC`, the TGI was above 100 µM in the assay on UO-31 renal; above 100 µM with HCT-116 colon; above 100 µM with HL-60(TB) leukemia; 22.9 µM with SK-OV-3 ovarian; above 100 µM in the assay on SF-268 CNS; above 100 µM with PC-3 prostate. Further, the TGI in the assay on SK-MEL-5 melanoma was above 100 µM; in the assay on NCI/ADR-RES ovarian it was above 100 µM; in the assay with SF-295 CNS it was 7.55 µM.

For the compound `COc1ccc2c(O)c(/C=C3\N=Nc4ccccc43)oc2c1C[C@@H]1CCNC[C@H]1F`, the GI50 with UO-31 renal is 7.55 µM; with HCT-116 colon it was 1.65 µM; with SK-MEL-2 melanoma, 17 µM; in the assay with HL-60(TB) leukemia, 16 µM; in the assay on SK-OV-3 ovarian, 17.2 µM; in the assay with SF-268 CNS, 3.13 µM. For the same compound, the GI50 in the assay on PC-3 prostate is 3.26 µM; in the assay on NCI/ADR-RES ovarian, 10.5 µM; in the assay on SF-295 CNS it was 3.31 µM. Moreover, the TGI in the assay with UO-31 renal turned out to be 22.1 µM; with HCT-116 colon, 3.17 µM; with SK-MEL-2 melanoma, 32.5 µM; with HL-60(TB) leukemia, 37.8 µM; in the assay with SK-OV-3 ovarian, 31.7 µM; with SF-268 CNS, 14.1 µM. For the same compound, the figures for the TGI in the assay on PC-3 prostate, in the assay on NCI/ADR-RES ovarian and in the assay on SF-295 CNS were 15.4 µM, 25.9 µM and 15.3 µM, respectively.

In the case of `COc1ccc2c(c1)[nH]c(=O)c1c3ccccc3cn21`, the GI50 was 0.0795 µM in the assay on UO-31 renal; 0.0395 µM in the assay with HCT-116 colon; 0.0114 µM in the assay with HL-60(TB) leukemia; 0.0738 µM with SF-268 CNS; 0.0368 µM in the assay on PC-3 prostate; 0.0282 µM with SK-MEL-5 melanoma. The values for the GI50 in the assay on NCI/ADR-RES ovarian and in the assay on SF-295 CNS were 0.0213 µM and 0.0268 µM, respectively. Besides, the TGI was 2.26 µM and 5.82 µM with UO-31 renal; 1.32 µM and 1.12 µM with HCT-116 colon; 2.49 µM and 18.7 µM in the assay on SK-MEL-2 melanoma; 0.0607 µM in the assay with HL-60(TB) leukemia; 2.55 µM and 3.04 µM with PC-3 prostate; 1.17 µM and 0.728 µM in the assay on SK-MEL-5 melanoma. Also, the TGI was 0.0575 µM in the assay on NCI/ADR-RES ovarian and 1.05 µM in the assay with SF-295 CNS.

Turning to `COc1ccc(Sc2nc3cc(N)cc(N)c3nc2-c2ccccc2)cc1`, the GI50 in the assay on UO-31 renal is above 100 µM; in the assay with HCT-116 colon, 14.7 µM; with HL-60(TB) leukemia, 4.25 µM; with SK-OV-3 ovarian, 32.9 µM; with SF-268 CNS it was above 100 µM; with PC-3 prostate, 6.39 µM. In addition, the GI50 was 24 µM in the assay with SK-MEL-5 melanoma, above 100 µM in the assay on NCI/ADR-RES ovarian and above 100 µM in the assay with SF-295 CNS. For the same compound, the TGI in the assay on UO-31 renal, in the assay with HCT-116 colon, in the assay with HL-60(TB) leukemia, in the assay with SK-OV-3 ovarian, in the assay on SF-268 CNS and with PC-3 prostate was above 100 µM throughout. In addition, the TGI with SK-MEL-5 melanoma, with NCI/ADR-RES ovarian and in the assay with SF-295 CNS was above 100 µM in each case.

Turning to `CCOC(=O)c1cc(C(=O)c2cc(OC)c(OC)c(OC)c2)n2c1ccc1ccccc12`, the GI50 was 0.502 µM with UO-31 renal; 0.271 µM in the assay on HCT-116 colon; 0.932 µM in the assay on SK-MEL-2 melanoma; 0.338 µM with HL-60(TB) leukemia; 1.02 µM with SK-OV-3 ovarian; 1.94 µM in the assay with SF-268 CNS. Moreover, the GI50 in the assay on PC-3 prostate was 0.294 µM; in the assay on SK-MEL-5 melanoma it was 0.434 µM; with NCI/ADR-RES ovarian, 0.172 µM. Also, the TGI in the assay with UO-31 renal, with HCT-116 colon, in the assay with SK-MEL-2 melanoma, with HL-60(TB) leukemia, in the assay on SK-OV-3 ovarian and in the assay on SF-268 CNS was above 100 µM throughout. Further, the TGI in the assay with PC-3 prostate, in the assay on SK-MEL-5 melanoma and in the assay on NCI/ADR-RES ovarian was above 100 µM throughout.

Regarding `CN(C)CCCCC(C(=O)CBr)(c1ccccc1)c1ccccc1`, the GI50 is 1.27 µM with UO-31 renal; 2.18 µM in the assay on SK-MEL-2 melanoma; 1.22 µM in the assay on HL-60(TB) leukemia; 6.63 µM in the assay with SK-OV-3 ovarian; 3.89 µM in the assay on SF-268 CNS; 2.71 µM with PC-3 prostate. In addition, the GI50 in the assay with SK-MEL-5 melanoma was 2.53 µM; with NCI/ADR-RES ovarian it was 2.85 µM; in the assay on SF-295 CNS it was 5.56 µM. For the same compound, the TGI is 2.79 µM with UO-31 renal; 6.02 µM in the assay on SK-MEL-2 melanoma; 3.95 µM in the assay with HL-60(TB) leukemia; 19.4 µM with SK-OV-3 ovarian; 15.8 µM in the assay with SF-268 CNS; 9.58 µM in the assay with PC-3 prostate. The TGI in the assay with SK-MEL-5 melanoma was determined as 8.68 µM; in the assay on NCI/ADR-RES ovarian, 10.1 µM; in the assay on SF-295 CNS, 19.2 µM.

On to `Clc1ccc(Nc2ccnc(N3CCN(c4ccnc5cc(Cl)ccc45)CC3)n2)cc1`, for which the GI50 is 1.28 µM in the assay with UO-31 renal; 1.99 µM in the assay with HCT-116 colon; 3.54 µM with HL-60(TB) leukemia; 3.28 µM with SK-OV-3 ovarian; 3.33 µM in the assay on SF-268 CNS; 1.98 µM with PC-3 prostate. The GI50 in the assay on SK-MEL-5 melanoma was 1.81 µM; in the assay with NCI/ADR-RES ovarian it was 2.68 µM; in the assay with SF-295 CNS it was 1.73 µM. The TGI in the assay with UO-31 renal was 5.61 µM; with HCT-116 colon it was 6.38 µM; in the assay on HL-60(TB) leukemia, 20 µM; with SK-OV-3 ovarian, 44.7 µM; in the assay with SF-268 CNS, 16.2 µM; in the assay on PC-3 prostate, 13.3 µM. For the same compound, the TGI is 3.66 µM in the assay on SK-MEL-5 melanoma, 7.83 µM in the assay on NCI/ADR-RES ovarian and 4.23 µM in the assay with SF-295 CNS.

With `O=C(NC(=O)c1ccccc1[N+](=O)[O-])Nc1ccc(Oc2ncc(Cl)cn2)c([N+](=O)[O-])c1`, the TGI was above 95.7 µM in the assay with UO-31 renal; above 100 µM in the assay on HCT-116 colon; above 100 µM in the assay with SK-MEL-2 melanoma; 1.17 µM with HL-60(TB) leukemia; above 69.3 µM in the assay with SK-OV-3 ovarian; above 100 µM with SF-268 CNS. Also, the figures for the TGI in the assay on PC-3 prostate, in the assay on SK-MEL-5 melanoma and with NCI/ADR-RES ovarian were above 100 µM, above 14.1 µM and 3.15 µM, respectively.

Consider `COc1ccc2c(c1)oc(=O)c1cc(OC)ccc12`, for which the GI50 was 32.9 µM in the assay with UO-31 renal; above 100 µM with HCT-116 colon; above 100 µM in the assay with SK-MEL-2 melanoma; above 100 µM in the assay with SK-OV-3 ovarian; above 100 µM with SF-268 CNS; above 100 µM in the assay on PC-3 prostate. For the same compound, the GI50 in the assay with SK-MEL-5 melanoma is 65.2 µM; with NCI/ADR-RES ovarian, above 100 µM; in the assay on SF-295 CNS it was above 100 µM. In addition, the TGI in the assay with UO-31 renal, with HCT-116 colon, with SK-MEL-2 melanoma, with SK-OV-3 ovarian, in the assay on SF-268 CNS and with PC-3 prostate was above 100 µM throughout. Besides, the TGI in the assay on SK-MEL-5 melanoma, in the assay with NCI/ADR-RES ovarian and with SF-295 CNS was above 100 µM in each case.
